Source: US20120142682A1, “ANT[…] INHIBITING BACTERIAL MONO-ADP-RIBOSYLT[…]” (UNIVERSITY OF GUELPH, priority 2010, published 2012)

Experiments:
[1] = tested on: Saccharomyces cerevisiae cells expressing the catalytic domain of P. aeruginosa ExoA (ExoAc); assay: Yeast-based compound screen; type: cell-based; conditions: compound 50 μM; w303 strain; growth restored
cholix toxin = cholix toxin (Vibrio cholerae, UniProt Q5EK40); assay: biochemical; type: biochemical; conditions: for IC50: read-out: IC50; for Ki: read-out: Ki
Chain of cholix toxin (Q5EK40 33-666 limits assumed): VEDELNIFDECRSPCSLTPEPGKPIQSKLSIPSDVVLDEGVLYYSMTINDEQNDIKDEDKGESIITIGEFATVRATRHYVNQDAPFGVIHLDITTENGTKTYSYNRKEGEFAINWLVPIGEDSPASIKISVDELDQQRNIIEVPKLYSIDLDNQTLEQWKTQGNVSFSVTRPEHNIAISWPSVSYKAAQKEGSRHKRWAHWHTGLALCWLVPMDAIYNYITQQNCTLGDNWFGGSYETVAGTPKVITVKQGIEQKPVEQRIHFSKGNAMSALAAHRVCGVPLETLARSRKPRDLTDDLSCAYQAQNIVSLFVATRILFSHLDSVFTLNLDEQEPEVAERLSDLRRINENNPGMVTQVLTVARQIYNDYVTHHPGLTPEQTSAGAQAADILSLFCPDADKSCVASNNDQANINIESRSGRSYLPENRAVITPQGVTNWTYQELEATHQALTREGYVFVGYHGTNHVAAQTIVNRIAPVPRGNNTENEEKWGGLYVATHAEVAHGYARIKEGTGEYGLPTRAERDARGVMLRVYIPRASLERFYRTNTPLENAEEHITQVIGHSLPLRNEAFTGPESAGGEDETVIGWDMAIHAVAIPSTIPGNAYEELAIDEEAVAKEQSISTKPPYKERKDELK

WT ExoAc = WT ExoAc (Pseudomonas aeruginosa, UniProt P11439); assay: biochemical; type: binding, P. aeruginosa; conditions: read-out: Kd
Chain of WT ExoAc (P11439 430-638 limits assumed): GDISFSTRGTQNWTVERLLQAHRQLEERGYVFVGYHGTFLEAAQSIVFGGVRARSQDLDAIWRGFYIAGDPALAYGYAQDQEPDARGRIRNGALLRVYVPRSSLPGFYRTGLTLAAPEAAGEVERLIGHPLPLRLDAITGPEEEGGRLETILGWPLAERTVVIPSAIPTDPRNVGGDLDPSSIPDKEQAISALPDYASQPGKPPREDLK

C38 cells = assay: Mammalian C38 cell drug sensitivity assay (MTT); type: cell-based, Human; conditions: compound 50 μM
Experimental: The C38 cells were cultured in 25 cm^2 culture flasks containing LHC-8 media with 5% fetal bovine serum at 37° C. in 5% CO2 until 90-100% confluency. The cells were washed with phosphate-buffered saline (PBS) and then detached from the culture flask by treating the cells with Puck's Saline Solution containing 0.02% EDTA. The cell suspension was diluted to a final density of 1.0×10^5 cells/mL and 100-μL aliquots were used to seed a 96-well plate. The cells were then grown in the presence of 50 μM of inhibitor (nonpolar compounds required 0.5% DMSO for solubility).

Structure (SMILES) | Protection in Yeast [1] | IC50 (cholix toxin) [nM] | Ki (cholix toxin) [nM] | Kd (WT ExoAc) [nM] | toxicity to C38 cells (C38 cells)
O=c1[nH]nc2c3c(cccc13)N=CN2 [Compound P7] | − (Compounds showing less than 5% growth were scored (−)) | 908 ± 118 | 118 ± 7 | 680 ± 40 | toxic
CN(C)CCCOc1ccc(-c2nc3cccc4c3n2CCNC4=O)cc1 [Compound P2] | − (Compounds showing less than 5% growth were scored (−)) | 480 ± 40 | 63 ± 5 | 260 ± 10 | toxic
CN1CCN(C2CCC3NC(O)C4CCCCC4C3N2)CC1 (stereo not drawn) [Compound P3] | − (Compounds showing less than 5% growth were scored (−)) | 690 ± 130 | 90 ± 17 | 1470 ± 30 | toxic
